Experiment in all cases: biochemical
What all share (set-up): Eurofins KinaseProfiler full panel at Km ATP, residual kinase activity (%) relative to DMSO

For one assay, the target named is T1, EphA1(h) (Homo sapiens, UniProt P21709).
T1 sequence (P21709 1-976): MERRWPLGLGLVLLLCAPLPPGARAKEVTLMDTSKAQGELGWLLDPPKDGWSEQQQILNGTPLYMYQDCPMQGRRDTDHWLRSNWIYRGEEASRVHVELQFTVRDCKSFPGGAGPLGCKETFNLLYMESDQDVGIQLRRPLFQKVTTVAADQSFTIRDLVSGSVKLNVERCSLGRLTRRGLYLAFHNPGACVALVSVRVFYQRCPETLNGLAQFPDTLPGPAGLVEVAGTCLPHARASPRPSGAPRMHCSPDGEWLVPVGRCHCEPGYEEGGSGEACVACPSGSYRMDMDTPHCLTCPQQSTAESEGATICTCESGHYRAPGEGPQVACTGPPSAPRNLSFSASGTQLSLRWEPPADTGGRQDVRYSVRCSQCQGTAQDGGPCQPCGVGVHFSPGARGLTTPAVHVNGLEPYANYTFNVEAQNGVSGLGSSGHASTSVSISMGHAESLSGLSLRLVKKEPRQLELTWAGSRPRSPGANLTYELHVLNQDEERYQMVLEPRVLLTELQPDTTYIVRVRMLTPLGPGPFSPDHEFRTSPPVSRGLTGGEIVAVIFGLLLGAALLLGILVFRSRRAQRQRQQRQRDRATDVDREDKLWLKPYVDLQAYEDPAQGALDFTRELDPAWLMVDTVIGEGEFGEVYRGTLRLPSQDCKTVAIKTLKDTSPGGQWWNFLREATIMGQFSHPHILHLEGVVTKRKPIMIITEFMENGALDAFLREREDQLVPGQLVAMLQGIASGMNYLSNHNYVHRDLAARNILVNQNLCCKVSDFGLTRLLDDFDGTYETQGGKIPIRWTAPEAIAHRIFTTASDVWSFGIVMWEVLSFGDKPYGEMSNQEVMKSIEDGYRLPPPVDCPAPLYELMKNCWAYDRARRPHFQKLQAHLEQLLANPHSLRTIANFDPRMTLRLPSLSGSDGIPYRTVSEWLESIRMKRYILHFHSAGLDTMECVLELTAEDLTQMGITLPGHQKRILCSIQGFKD
An outline of the steps: (§1)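 Radiometric kinase activity assays were run with ATP at Km and compounds at 10 µM, and remaining activity (%) was reported. A separate competitive binding screen measured DNA-tagged kinase displaced from immobilized active-site ligands by qPCR, giving percent kinase still bound at 10 µM compound in DMSO.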

The next assay deals with T2, MINK(h) (Homo sapiens, UniProt Q8N4C8).
T2 construct: gene MINK1
In short, it runs like this: as §1

The next assay addresses STK32A(h) (Homo sapiens, UniProt Q8WU08). In short, it runs like this:
as §1

The next assay addresses FGFR2(N549H)(h) (Homo sapiens, UniProt P21802, N549H). An outline of the steps: as §1
The target of another assay is Fes(h) (Homo sapiens, UniProt P07332). In short, it runs like this:
as §1

A further assay addresses T3, ULK1(h) (Homo sapiens, UniProt O75385).
T3 sequence (O75385 1-1050): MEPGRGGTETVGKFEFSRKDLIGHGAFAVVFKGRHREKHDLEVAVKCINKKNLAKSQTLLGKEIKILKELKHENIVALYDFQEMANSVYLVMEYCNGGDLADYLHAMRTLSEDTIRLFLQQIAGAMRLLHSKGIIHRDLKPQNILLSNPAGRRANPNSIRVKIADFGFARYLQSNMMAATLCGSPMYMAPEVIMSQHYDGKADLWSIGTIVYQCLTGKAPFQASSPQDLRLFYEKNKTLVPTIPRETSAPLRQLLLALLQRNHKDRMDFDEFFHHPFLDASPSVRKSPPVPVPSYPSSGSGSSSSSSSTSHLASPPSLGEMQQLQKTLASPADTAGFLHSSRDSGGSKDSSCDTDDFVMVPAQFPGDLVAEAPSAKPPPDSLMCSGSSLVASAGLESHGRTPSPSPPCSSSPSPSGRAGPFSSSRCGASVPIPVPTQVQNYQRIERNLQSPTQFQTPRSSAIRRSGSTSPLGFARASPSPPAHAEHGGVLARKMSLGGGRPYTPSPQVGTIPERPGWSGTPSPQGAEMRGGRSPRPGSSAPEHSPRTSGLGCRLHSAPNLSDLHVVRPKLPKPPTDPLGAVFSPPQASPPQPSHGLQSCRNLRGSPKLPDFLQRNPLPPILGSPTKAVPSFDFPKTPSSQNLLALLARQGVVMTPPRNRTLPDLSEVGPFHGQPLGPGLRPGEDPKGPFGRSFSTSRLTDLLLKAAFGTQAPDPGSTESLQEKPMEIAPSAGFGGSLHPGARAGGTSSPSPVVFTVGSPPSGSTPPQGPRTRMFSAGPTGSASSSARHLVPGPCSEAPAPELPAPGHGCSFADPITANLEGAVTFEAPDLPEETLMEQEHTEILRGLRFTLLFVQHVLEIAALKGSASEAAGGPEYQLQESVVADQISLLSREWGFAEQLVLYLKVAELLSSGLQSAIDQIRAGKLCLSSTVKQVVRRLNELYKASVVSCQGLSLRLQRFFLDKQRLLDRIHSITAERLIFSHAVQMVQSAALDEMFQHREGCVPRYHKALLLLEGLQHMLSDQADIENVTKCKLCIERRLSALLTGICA
An outline of the steps: as §1

Setting [1] is: read-out: Residual activity (%) Spautin-1 5aa.
The mark [2] stands for this setting: read-out: Residual activity (%) 5as.
The mark [3] stands for this setting: read-out: Residual activity (%) 5at.
Where [4] appears, read: read-out: Residual activity (%) 5ay.

Like-named read-outs stand apart in the source and are kept apart here.

Sequence of FGFR2(N549H)(h) (P21802 whole entry N549H): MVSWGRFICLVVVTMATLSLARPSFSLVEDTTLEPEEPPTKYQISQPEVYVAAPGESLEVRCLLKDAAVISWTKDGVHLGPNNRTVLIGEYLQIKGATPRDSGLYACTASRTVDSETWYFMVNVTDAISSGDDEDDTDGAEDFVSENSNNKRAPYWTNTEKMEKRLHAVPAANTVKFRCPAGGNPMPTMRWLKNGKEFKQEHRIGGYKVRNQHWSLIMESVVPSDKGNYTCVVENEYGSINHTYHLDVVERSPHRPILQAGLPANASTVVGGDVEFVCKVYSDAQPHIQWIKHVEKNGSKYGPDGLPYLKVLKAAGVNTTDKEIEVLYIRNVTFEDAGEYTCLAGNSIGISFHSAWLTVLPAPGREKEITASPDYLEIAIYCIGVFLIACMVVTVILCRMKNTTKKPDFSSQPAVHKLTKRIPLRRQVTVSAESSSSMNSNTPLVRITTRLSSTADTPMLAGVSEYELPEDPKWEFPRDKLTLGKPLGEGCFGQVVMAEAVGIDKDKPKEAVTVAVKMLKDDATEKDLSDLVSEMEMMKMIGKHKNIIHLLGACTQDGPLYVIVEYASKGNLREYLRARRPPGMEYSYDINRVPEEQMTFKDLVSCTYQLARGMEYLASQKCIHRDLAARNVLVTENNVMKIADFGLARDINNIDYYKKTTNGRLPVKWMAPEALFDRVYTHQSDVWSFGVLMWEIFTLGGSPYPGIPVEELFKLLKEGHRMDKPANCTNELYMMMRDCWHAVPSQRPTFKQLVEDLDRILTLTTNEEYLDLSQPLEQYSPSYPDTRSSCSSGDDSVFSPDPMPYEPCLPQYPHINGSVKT
T2 sequence (Q8N4C8 whole entry): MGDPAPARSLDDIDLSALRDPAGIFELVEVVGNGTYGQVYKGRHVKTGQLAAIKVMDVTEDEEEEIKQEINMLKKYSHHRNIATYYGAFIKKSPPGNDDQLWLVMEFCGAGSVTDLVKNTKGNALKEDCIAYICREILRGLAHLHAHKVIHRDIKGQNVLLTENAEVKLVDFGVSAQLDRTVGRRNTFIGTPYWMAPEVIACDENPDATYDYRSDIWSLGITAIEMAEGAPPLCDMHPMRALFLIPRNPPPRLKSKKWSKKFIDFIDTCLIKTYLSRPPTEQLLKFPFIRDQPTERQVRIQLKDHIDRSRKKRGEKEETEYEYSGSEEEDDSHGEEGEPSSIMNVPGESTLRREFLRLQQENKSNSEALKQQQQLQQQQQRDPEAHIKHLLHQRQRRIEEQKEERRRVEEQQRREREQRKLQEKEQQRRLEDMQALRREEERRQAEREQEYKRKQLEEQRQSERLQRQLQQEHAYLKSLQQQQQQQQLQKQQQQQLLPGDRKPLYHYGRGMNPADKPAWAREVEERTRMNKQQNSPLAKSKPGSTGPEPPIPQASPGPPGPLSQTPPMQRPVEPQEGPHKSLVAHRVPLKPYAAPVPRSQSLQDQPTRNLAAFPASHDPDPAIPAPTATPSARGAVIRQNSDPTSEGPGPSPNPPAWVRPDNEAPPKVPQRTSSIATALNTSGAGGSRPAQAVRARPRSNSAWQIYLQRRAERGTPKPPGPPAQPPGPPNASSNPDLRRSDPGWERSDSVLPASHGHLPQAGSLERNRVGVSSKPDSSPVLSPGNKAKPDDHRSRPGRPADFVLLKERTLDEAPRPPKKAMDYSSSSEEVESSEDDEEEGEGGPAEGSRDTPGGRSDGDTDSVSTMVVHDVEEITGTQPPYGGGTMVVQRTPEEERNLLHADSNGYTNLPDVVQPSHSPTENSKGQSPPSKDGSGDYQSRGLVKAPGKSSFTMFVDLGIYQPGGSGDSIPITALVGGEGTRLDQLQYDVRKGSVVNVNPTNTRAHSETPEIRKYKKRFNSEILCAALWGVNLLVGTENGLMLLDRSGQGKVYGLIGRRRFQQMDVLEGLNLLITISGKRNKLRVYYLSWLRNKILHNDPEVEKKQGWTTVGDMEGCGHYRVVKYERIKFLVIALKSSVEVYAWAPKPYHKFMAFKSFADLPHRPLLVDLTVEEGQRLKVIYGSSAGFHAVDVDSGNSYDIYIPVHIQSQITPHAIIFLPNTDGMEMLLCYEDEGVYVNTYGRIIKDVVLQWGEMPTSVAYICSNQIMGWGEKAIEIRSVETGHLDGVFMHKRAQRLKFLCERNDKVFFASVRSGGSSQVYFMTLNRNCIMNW
Sequence of Fes(h) (P07332 whole entry): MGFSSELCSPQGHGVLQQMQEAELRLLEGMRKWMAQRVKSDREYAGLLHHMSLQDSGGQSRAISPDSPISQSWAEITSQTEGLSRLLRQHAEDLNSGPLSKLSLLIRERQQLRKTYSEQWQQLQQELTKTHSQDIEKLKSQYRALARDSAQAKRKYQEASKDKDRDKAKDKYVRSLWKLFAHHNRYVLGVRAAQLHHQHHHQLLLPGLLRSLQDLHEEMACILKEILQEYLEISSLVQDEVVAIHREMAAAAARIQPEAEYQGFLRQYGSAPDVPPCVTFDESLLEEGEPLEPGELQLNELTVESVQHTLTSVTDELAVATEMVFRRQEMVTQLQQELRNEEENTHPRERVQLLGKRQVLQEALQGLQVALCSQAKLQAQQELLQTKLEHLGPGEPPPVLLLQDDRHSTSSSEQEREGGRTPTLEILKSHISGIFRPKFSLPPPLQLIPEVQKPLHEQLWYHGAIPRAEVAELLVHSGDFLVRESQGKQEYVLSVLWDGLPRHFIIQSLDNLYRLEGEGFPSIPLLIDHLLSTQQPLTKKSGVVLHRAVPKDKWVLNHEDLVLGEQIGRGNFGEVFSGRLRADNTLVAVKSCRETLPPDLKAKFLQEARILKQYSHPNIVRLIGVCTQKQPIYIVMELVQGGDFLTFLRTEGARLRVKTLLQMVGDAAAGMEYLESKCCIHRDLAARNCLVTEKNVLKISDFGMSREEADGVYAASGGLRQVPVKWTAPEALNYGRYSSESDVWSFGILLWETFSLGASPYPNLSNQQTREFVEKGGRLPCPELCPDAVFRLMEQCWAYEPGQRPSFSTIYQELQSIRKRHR
Sequence of STK32A(h) (Q8WU08 whole entry): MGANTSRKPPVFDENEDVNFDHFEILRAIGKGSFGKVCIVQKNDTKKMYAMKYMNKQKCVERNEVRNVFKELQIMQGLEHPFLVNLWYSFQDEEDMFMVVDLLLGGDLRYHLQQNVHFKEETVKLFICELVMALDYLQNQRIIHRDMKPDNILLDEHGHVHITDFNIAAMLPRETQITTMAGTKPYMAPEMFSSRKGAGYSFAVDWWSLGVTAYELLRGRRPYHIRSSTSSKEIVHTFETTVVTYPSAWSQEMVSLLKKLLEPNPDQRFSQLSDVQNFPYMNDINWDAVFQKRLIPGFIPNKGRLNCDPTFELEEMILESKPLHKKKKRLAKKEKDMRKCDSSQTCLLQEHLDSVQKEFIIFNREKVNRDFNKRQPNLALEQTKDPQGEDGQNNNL

Turning to `Fc1ccc(CNc2ncnc3ccc(F)cc23)cc1` [5aa, 6-Fluoro-N-(4-fluorobenzyl)-4-Quinazolinamine], the remaining activity at 10 µM on EphA1(h) (setting [1]) came to 93%; on MINK(h) (setting [1]), 86%; at STK32A(h) (setting [1]) it was 95%; at FGFR2(N549H)(h) (setting [1]), 72%; at Fes(h) (setting [1]), 91%; on ULK1(h) (setting [1]), 99%.

In the case of `Fc1ccc(CCNc2ncnc3ccc(F)cc23)cc1` [5as, 6-Fluoro-N-[2-(4-Fluorophenyl)Ethyl]-4-Quinazolinamine], the remaining activity at 10 µM on EphA1(h) (setting [2]) was 66%; at MINK(h) (setting [2]), 88%; at STK32A(h) (setting [2]), 99%; at FGFR2(N549H)(h) (setting [2]) it was 80%; on Fes(h) (setting [2]), 92%; on ULK1(h) (setting [2]) it was 91%.

Regarding `Fc1ccc2ncnc(NCCc3ccc(Cl)cc3)c2c1` [5at, N-[2-(4-Chlorophenyl)Ethyl]-6-Fluoro-4-Quinazolinamine], the remaining activity at 10 µM worked out at 74% on EphA1(h) (setting [3]); 89% at MINK(h) (setting [3]); 100% on STK32A(h) (setting [3]); 68% on FGFR2(N549H)(h) (setting [3]); 81% on Fes(h) (setting [3]); 84% at ULK1(h) (setting [3]).

`COc1ccc2ncnc(Nc3cccc(F)c3)c2c1` [5ay, N-(3-Fluorophenyl)-6-Methoxy-4-Quinazolinamine]: the remaining activity at 10 µM came to 61% on EphA1(h) (setting [4]); 67% at MINK(h) (setting [4]); 103% on STK32A(h) (setting [4]); 66% at FGFR2(N549H)(h) (setting [4]); 93% on Fes(h) (setting [4]); 93% on ULK1(h) (setting [4]).

The record behind these values is publication PMC7827406, “Structure–Activity Relationship (SAR) Study of Spautin-1 to Entail the Discovery of Novel NEK4 Inhibitors” (International Journal of Molecular Sciences, 2021).
